Here are results for three compounds from patent publication US10233205B2, “Magnetic resonance imaging contrast agent capable of detecting hydrogen peroxide and reducing reactive oxygen species” (Auburn University, priority 2015, dated 2019).

The nature of data set [1]: Potentiometric pH titrations, Hyperquad model.
Text: The speciation in water was more rigorously probed with potentiometric pH titrations. […] The quinolic protons likely deprotonate at higher pH values (pKa˜10), but we were unable to obtain the high pH data necessary to confirm this.
The data were fit to a model containing the protonated forms of the free ligand and four Mn(II) complexes with the ligand in various protonation states: [Mn(H2qtp2)], [Mn(H3qtp2)]^+, [Mn(H4qtp2)]^2+, and [Mn(H4qtp2)]^3+ (Scheme 4).
A further data set can be described thus: Cyclic voltammetry. The settings on record: for ΔE, separation between anodic and cathodic peaks: ligand redox feature. The class given is physicochemical. The method, then: All ^1H and ^13C NMR spectra were recorded on a 400 MHz AV Bruker NMR spectrometer; all reported resonances were referenced to internal standards. Electron paramagnetic resonance (EPR) spectra were collected using a Bruker EMX-6/1 X-band EPR spectrometer operated in the perpendicular mode. The acquired data were analyzed with the program EasySpin. Each sample was run as a frozen solution in a quartz tube. High-resolution mass spectrometry (HR-MS) data were obtained at the Mass Spectrometer Center at Auburn University on a Bruker microflex LT MALDI-TOF mass spectrometer via direct probe analysis operated in the positive ion mode. IR data were collected using a Shimadzu IR Prestige-21 FT-IR spectrophotometer. A Johnson Matthey magnetic susceptibility balance (model MK I#7967) was used to measure the magnetic properties of the Mn(II) complex with H2qtp1; the reported eff value was the average of those measured for two independently prepared solid samples. Atlantic Microlabs (Norcross, Ga.) performed the elemental analyses (C, H, N). All samples submitted for elemental analysis were crystallized and dried under vacuum prior to their shipment. All cyclic voltammetry was performed under N2 at 294 K using an Epsilon electrochemistry workstation (Bioanalytical System, Inc.), a gold working electrode, a platinum wire auxiliary electrode, and a Ag/AgCl reference electrode.
Complex 3 was studied by cyclic voltammetry (CV) in water containing 50 mM phosphate to buffer the solution to pH 7.2. A redox feature with E1/2 of 60 mV vs. Ag/AgCl (295 mV vs. NHE) is observed (FIG. 22).
Similar redox processes were found for both 1 and a Zn(II)-H2qtp1 complex, leading us to assign the 60 mV redox event to the oxidation of the ligand, rather than the manganese. The separation between the anodic and cathodic peaks (ΔE) for this feature is 230 mV; this is much less reversible than its analog in the CV of 1 (75 mV). A second and entirely irreversible redox event at 725 mV (960 mV vs NHE) is tentatively assigned to the oxidation of Mn(II) to Mn(III). For this analysis, the scan rate was 100 mV/s. For the quasi-reversible feature: E1/2=57 mV vs. Ag/AgCl, ΔE=232 mV. An irreversible feature with Epc=725 mV is also observed.

Data set [2] is described as follows: T1-weighted relaxivity (r1) on 3 T clinical MRI scanner. The class given is physicochemical. The settings on record: 50 mM HEPES pH 7.00, 3 T.
Data set [3] can be described thus: Metal exchange with Fe(ClO4)2 followed by UV/vis. The data set is classed as physicochemical. The settings on record: 0.10 mM complex + 0.10 mM Fe(ClO4)2, MeCN. The method, then:
Over this time, collected UV/vis spectra (FIGS. 2 & 3) display changes in the region between 200 nm and 300 nm which are consistent with the oxidation of the quinol to a para-quinone. Past 24 h, the solution begins to turn brown, consistent with oxidation of the manganese to Mn(III) and/or Mn(IV). For the spectrophotometric analysis, the Fe(ClO4)2 solution was added to a MeCN solution containing 0.10 mM [Mn(Hptp1)(MeCN)]^2+; the mixture was scanned at 0 min (dashed red), 30 min (dashed pink), and 60 min (dashed blue). […] At 15 h, approximately 11% of the Mn(II) has been displaced by Fe(II) as indicated by data in FIG. 3.
The stability of 3 to air and adventitious metal ions was assessed primarily by UV/vis spectroscopy. […] Complex 3, however, is susceptible to metal exchange. When equimolar amounts of 3 and Fe(ClO4)2 are mixed in MeCN, 80% of the Mn(II) is replaced by Fe(II) by 3 h.

A short description of data set [4]: DPPH free radical scavenging assay. The data set is classed as biochemical. The following applies: Example 1. The method, then:
An alternative assessment of the Mn(II) complexes' anti-oxidant properties relied upon the DPPH assay. Aqueous solutions of either 1, 2, or ascorbic acid were added to a solution of 0.10 mM DPPH in MeOH, such that the final reaction volume was 0.2 mL. Samples were incubated in the dark for 30 min at room temperature. Spectrophotometric measurements were subsequently performed at 517 nm using a Molecular Devices Spectramax Plus. This wavelength corresponds to the λmax of the reduced product. Experiments were performed in triplicate and repeated twice.
The anti-oxidant properties of 1 and 2 were also assessed using the DPPH assay (DPPH=2,2-diphenyl-1-picrylhydrazyl radical hydrate), which evaluates the ability of a compound to donate hydrogen atoms to DPPH to yield the corresponding hydrazine. The anti-oxidants were added to DPPH and incubated in the dark for 30 min at room temperature. Spectroscopic measurements were performed at 517 nm. The data were normalized to the absorbance in the presence of vehicle. All experiments were performed in triplicate and repeated twice.
Complex 3 is also a competent […] as assessed by the DPPH assay (FIG. 33), which tests the abilities of compounds to donate hydrogen atoms to 2,2-diphenyl-1-picrylhydrazyl radical hydrate. […] The data were normalized to the absorbance in the presence of vehicle. […] The hydrazine product is monitored by UV/vis.

Values joined by “and” are separate entries in the source; they are usually repeats but may differ in a detail not shown here. Equal entries are not always repeated.

In the case of “cis-Dibromo(N,N′-bis(2,5-dihydroxybenzyl)-N,N′-bis(2-pyridinylmethyl)-1,2-ethanediamine)manganese(II) [Complex 3]”, the “percentage of free Mn(II)” value in data set [1] (pH 7.0) is 1.4%. In addition, the “manganese bound by some form of the ligand” value in data set [1] (pH 7.4) was “Over 99%”. In “Cyclic voltammetry”, the “ΔE, separation between anodic and cathodic peaks” value was 230 mV and 232 mV. In the data set “Cyclic voltammetry” (phosphate buffer pH 7.2, quasi-reversible ligand feature), the “E1/2 vs. Ag/AgCl” value is 60 mV and 57 mV. Besides, in the data set “Cyclic voltammetry” (tentatively Mn(II) to Mn(III)), the “irreversible redox event (Epc) vs. Ag/AgCl” value stood at 725 mV and the “irreversible redox event vs NHE” value was 960 mV.
Take `CC#N.O=S(=O)([O-])C(F)(F)F.O=S(=O)([O-])C(F)(F)F.[Mn+2].[O-]c1ccc(O)cc1CN(CCN(Cc1ccccn1)Cc1ccccn1)Cc1ccccn1` [Complex 1, Acetonitrilo(N-(2,5-dihydroxy-benzyl)-N,N′,N′-tris(2-pyridinylmethyl)-1,2-ethanediamine)manganese(II) triflate]: in data set [2] (2 mM KO2), the “r1 after addition of KO2” value is 5520 M⁻¹ s⁻¹. Also, the “r1 after addition of NaClO” value in data set [2] (10 mM NaClO) worked out at 4.82 mM⁻¹ s⁻¹. Besides, in data set [2] (oxidized by DDQ), the “r1 of fully oxidized sensor” value stood at 5.56 mM⁻¹ s⁻¹. For the same compound, in the data set “Cyclic voltammetry”, the “ΔE, separation between anodic and cathodic peaks” value is reported as 75 mV. The “E1/2 vs. NHE” value in the data set “Cyclic voltammetry” (phosphate buffer pH 7.2, ligand feature) is listed as “about 300 mV”.
On to `CC#N.Cc1ccc(O)c(CN(CCN(Cc2ccccn2)Cc2ccccn2)Cc2ccccn2)c1.[Mn+2].[O-][Cl+3]([O-])([O-])[O-].[O-][Cl+3]([O-])([O-])[O-]` [Complex 2, reference compound], for which the “displacement of Mn(II) by Fe(II)” value in data set [3] (0-60 min) is “negligible displacement”. Also, in data set [3] (15 h), the “Mn(II) displaced by Fe(II)” value was “approximately 11%”. Also, in data set [4], the “DPPH reduction” value is on record as “fails to reduce DPPH to a noticeable degree”.
